Assay results: patent US6417159B1 (Queen's University at Kingston, priority 1996, dated 2002)
Where “and” joins values, the source holds several entries; their conditions need not be identical. Equal values may be shown once. Read-outs that look alike come from different tables or passages of the source. Where no end group is shown, it is not given here. The star is where a group is joined. 125I = [125I]*

Assays:
[1] = tested on: ED8 chick DRG neurons; experiment: NGF-mediated neurite growth by ED8 chick DRG sensory neurons; type: cell-based; details: for % of Control Response DRG: (peptide with NGF − NGF alone)/(R3 with NGF − NGF alone) ×100, scored at 43, 44 and 48 hours, M ± SEM, n = 3 assays; for Reduction (loss) of biological effect relative to R3 on enhancement of NGF-mediated neurite growth: DRG cells, 40-50 hours in vitro; for Neurite growth in control wells: 16-20 hours
[2] = molecular target: T1, p65 subunit of NFkB (Rattus norvegicus, UniProt Q7TQN4); experiment: Chemical cross-linking of 125I-Y-R3 to 65 kDa species in PC12 soluble extract, displacement by unlabeled peptide; type: binding; details: for Displacement of radiolabel from 65 kDa band: 0.5 μM 125I-Y-R3, 150-fold molar excess of unlabeled peptide, densitometric scanning
T1 construct: endogenous in cells; host or cells: PC12 (soluble cell extract)
Method: Y-R3 (5 μg) was labeled with 1 mCi of Na^125I (Amersham) using iodobeads (Pierce) in 50 mM sodium phosphate buffer, as described in Part A. ^125I-Y-R3 (0.5 μM) was incubated with PC12 cell extract (prepared as above) or affinity purified proteins at pH 7.0, with and without a 150-fold molar excess of competing unlabeled peptide for 2 hrs at 4° C. At that time, EDC (Pierce) and NHS (Pierce) were added to a final concentration of 2 mM each and the reaction allowed to proceed for 30 min at room temperature. The reaction was quenched by adding Tris-HCl to a final concentration of 50 mM. An aliquot was removed and mixed with 4 volumes of SDS sample buffer for SDS-PAGE and the remainder subjected to immunoprecipitation.
Cell extract or R3 affinity purified material was incubated for 4 hrs at 4° C. with 5 μl of agarose conjugated goat anti-NFkB p65 (Santa Cruz). The gel was washed at 4° C. with 5×1 ml of HKR containing 1% NP40, followed by a final wash without detergent. SDS reducing sample buffer was added to the gel and the samples were heated at 95° C. for 5 minutes prior to electrophoresis as described above.
To examine the structural specificity of the interaction of R3 peptide with the 65 kDa species, PC12 cell soluble extract was chemically cross-linked with 0.5 μM ^125I-Y-R3 in the absence and presence of a 150-fold molar excess of unlabeled R9 or R10. […] The reaction mixtures were separated by SDS-PAGE, followed by autoradiography.

[3] = tested on: PC12 cells; experiment: NGF-mediated neurite growth by PC12 cells; type: cell-based, rat; details: PC12 cells, peptide co-incubated with NGF
Method: PC12 cells or PC12^nnr5 cells (Loeb et al., 1991) were seeded on poly-D-lysine-coated (0.1 mg·ml^−1, overnight) 96-well microculture dishes (Falcon) at approximately 800 cells per well with RPMI with 10% fetal calf serum. Peptides were added to replicate wells 48 hours before, or at the time of, addition of NGF. NGF was prepared by the method of Mobley et al. (1976) and used at 1-2 nM. Other additives were diluted at least 100-fold and added to the wells as described. At various times following incubation at 37° C., 5% CO2, wells were scored for neurite-bearing cells by serial counting of representative circumferences of each well.
A Leitz Diavert inverted microscope with phase optics was used to score neurite growth. For both PC12 cells and sensory neurons, a neurite was scored as such if its calibre from origin to terminal was approximately the same and the length was equal to or greater than 1.5 cell body diameters.

[4] = tested on: PC12 cells; type: cell-based, rat
Method: Labeling of all tyrosinated peptides for uptake studies were carried out using IODO-BEADS™ (Pierce). Briefly, 5 μg of the desired peptide was iodinated at pH 7.4, at room temperature, and separated from free iodide by selective elution from a C-18 SEP PAK LIGHT™ (Waters-Millipore) in 80% CH3CN, 1.0% trifluoroacetic acid. The solvent was removed at room temperature under a stream of nitrogen. Specific activity of labeled peptide was 50-65 cpm-pg^−1.
Stock solutions of [^125I]-labeled peptides (final concentration […], specific activity 50-800 cpm·pmol^−1) were prepared in RPMI medium with 10% fetal calf serum. Uptake was initiated by adding the peptide to the cell suspension in RPMI 1640 with 10% fetal calf serum, maintained at 37° C. Cell-associated label was determined by counting the cell pellet obtained by microcentrifuging an aliquot (100 μl containing 1-3×10^5 cells) of the cell suspension through a layer of silicone oil. The silicone oil was 3:1 mixture of dibutyl phthalate:dinonyl phthalate (Fluke Chemie, Switzerland) with a density of 1.027 (Drevon et al., 1977).
The uptake versus were corrected for “adsorption” of peptides to the cell surface at zero time. This was assessed by determining label that remained associated with cells removed immediately after the addition of [^125I]-peptide and washed by 2 cycles of centrifugation at […] for 5 minutes and resuspension in peptide-free tissue culture medium. At the indicated times, cold chase values were obtained by removing an aliquot (500 μl) of the cell suspension for centrifugation at 150×g for 5 minutes, followed by resuspension in its initial volume of RPMI+10% fetal calf serum containing 50 μM (10×original) unlabeled peptide. The cell suspension was then returned at 37° C. for a further 30 minutes. At the end of this time, cell-associated label was determined as above.

[5] = tested on: c-fos mRNA; details: one-hour exposure
[6] = tested on: PC12 cells; experiment: Cytotoxicity in PC12 cultures; details: concentration of 50 μM
[7] = molecular target: T2, p65 subunit of transcription factor NFkB from PC12 cell soluble extract (rat, UniProt Q7TQN4 1-550); experiment: chemical cross-linking (EDC/NHS) of 125I-Y-R3 to PC12 soluble extract, SDS-PAGE, autoradiography
T2 construct: also called NFkB p65; 65 kDa species
Method: (§1) At that time, EDC (Pierce) and NHS (Pierce) were added to a final concentration of 2 mM each and the reaction allowed to proceed for 30 min at room temperature. The reaction was quenched by adding Tris-HCl to a final concentration of 50 mM. An aliquot was removed and mixed with 4 volumes of SDS sample buffer for SDS-PAGE and the remainder subjected to immunoprecipitation.

[8] = molecular target: T2, p65 subunit of transcription factor …; experiment: affinity chromatography of PC12 soluble extract on R3 matrix, SDS-PAGE, silver stain
Method: PC12 cells were harvested and washed by 3 cycles of resuspension and centrifugation in Ca^2+, Mg^2+-free Gey's Balanced Salt Solution (CMF). […] The column was then washed with 10 bed volumes of homogenizing buffer and 10 bed volumes of detergent-free homogenizing buffer. The bound material was then eluted with 0.5 mg/ml R3 peptide. The eluate was dialyzed (3500 cut off) extensively against 10 mM sodium phosphate pH 7.4 and taken to dryness under reduced pressure on a Speed Vac (Savant).
A soluble extract of PC12 cells was applied to the R3 affinity resin. […] A similar profile was obtained when extracts from "primed" (exposed to 100 ng/ml NGF for 10 days) PC12 cells, PC12^nnr5 cells or ED9 chick brain were used.

[9] = molecular target: T2, p65 subunit of transcription factor …; experiment: competition of unlabeled R3 against 125I-Y-R3 cross-linking to the 65 kDa protein
Method: as §1
The p65 subunit of NFkB was detected in PC12 soluble extracts and in the R3-affinity purified material (FIG. 9A). This 65 kDa protein could also be specifically cross-linked to the iodinated probe for the intracellular domain of P75^NTR, the interaction being displaced by a 150-fold molar excess of unlabeled peptide, and the complex immunoprecipitated by antibodies to the transcription factor (FIGS. 9B and […]).

[10] = 10 μM peptide in solution, no additive to culture medium
[11] = time course of association with PC12 cells

T2 sequence (Q7TQN4 whole entry): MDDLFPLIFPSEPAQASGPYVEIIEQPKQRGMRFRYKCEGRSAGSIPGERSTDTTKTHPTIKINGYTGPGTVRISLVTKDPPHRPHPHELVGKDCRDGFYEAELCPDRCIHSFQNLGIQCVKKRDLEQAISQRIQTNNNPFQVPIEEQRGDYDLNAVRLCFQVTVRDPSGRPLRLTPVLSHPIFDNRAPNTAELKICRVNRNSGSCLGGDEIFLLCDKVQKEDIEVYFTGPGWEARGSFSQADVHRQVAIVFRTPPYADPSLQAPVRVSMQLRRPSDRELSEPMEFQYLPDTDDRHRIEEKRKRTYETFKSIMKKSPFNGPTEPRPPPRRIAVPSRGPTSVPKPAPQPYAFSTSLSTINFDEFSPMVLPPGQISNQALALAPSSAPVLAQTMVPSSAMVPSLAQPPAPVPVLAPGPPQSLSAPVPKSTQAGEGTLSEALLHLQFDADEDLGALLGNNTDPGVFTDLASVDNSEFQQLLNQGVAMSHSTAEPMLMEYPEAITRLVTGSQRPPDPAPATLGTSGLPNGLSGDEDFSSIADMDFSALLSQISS
T1 sequence (Q7TQN4 whole entry): as above

Which results are given for LDALLAALRAIQR [R9]?
% of Control Response DRG [1]: 61 ± 1^(5) %; Reduction (loss) of biological effect relative to R3 on enhancement of NGF-mediated neurite growth [1]: approximately 40%; Activity relative to R3 in influencing NGF-mediated neurite growth ([1]; in vitro): 50-60% and 61%; Displacement of radiolabel from 65 kDa band [2]: 76%

Which “% of Control Response DRG” value [1] does the source give for LDALLAALRRRQR [R10] here?
Its value is 29 ± 4^(5) %.

And the “Reduction (loss) of biological effect relative to R3 on enhancement of NGF-mediated neurite growth” value [1]?
Its value is “approximately 70%”.

And the “Displacement of radiolabel from 65 kDa band” value [2]?
Its value is 43%.

Which “Effect on NGF-mediated neurite growth, co-incubation, in words” value [3] does the source give for “R4: hybrid: R3 linked via its amino terminus to an 11-amino acid peptide homologue of the inner transmembrane domain of p75^NTR (Sequence ID No. 7) (VVVGLVAYIAFLDALLAALRRIQR)” here?
Its value is “did not enhance NGF-mediated neurite growth”.

What about the “Cell association resistant to chase (uptake), in words” value [4] of the same molecule?
Its value is “did not suggest an uptake process”.

What about the “Time at half-maximal uptake” value [4, 10] of the same molecule?
The value was 0 min.

For “Y-R3: tyrosinated peptide analogue of R3, N-terminal tyrosine (Sequence ID No. 6); radio-iodinated for uptake and cross-linking (YLDALLAALRRIQR; also: radio-iodinated)”, which “Interaction with 65 kDa species by chemical cross-linking, in words” value ([2]; soluble PC12 extract) is on record?
Its value is “interacted specifically”.

And the “Uptake at full saturation” value [4]?
The value was 20 pmol/10^6 cells.

What about the “Time at half-maximal uptake” value [4, 10] of the same molecule?
Its value is 30 min.

What about the “Time at half-maximal uptake” value ([4]; 10 μM peptide, MgCl2 (10 mM) added to culture medium) of the same molecule?
The value was 30 min.

What about the “Time for which label remained resistant to chase by excess unlabeled R3” value ([4]; cold chase) of the same molecule?
Its value is “up to 50 hours”.

And the “Time at which uptake was half-maximally saturated” value [4, 11]?
Its value is 30 min.

And the “Time to full saturation of uptake” value [4, 11]?
The value was 10 to 20 h.

How did the “Effect on NGF-mediated neurite growth, co-incubation, in words” value [3] turn out when mastoparan [MP] was run?
Its value is “did not significantly influence”.

And the “Effect on NGF-mediated c-fos mRNA induction, in words” value [5]?
The value was “stimulatory effect”.

What about the “Cytotoxicity, in words” value [6] of the same molecule?
The value was “cytotoxic”.

For nerve growth factor [NGF], which “Neurite growth in control wells” value ([1]; NGF 0.04 pM alone) is on record?
Its value is 5.5±2.1.

And the “Neurite growth in control wells” value ([1]; NGF 0.4 pM alone)?
Its value is 14.0±6.1.

What about the “Neurite growth in control wells” value ([1]; NGF 4 pM alone) of the same molecule?
The value was 31.7±8.7.

What about the “Neurite growth in control wells” value ([1]; NGF 40 pM alone) of the same molecule?
The value was 44.8±8.6.

B1: 125I-Y-R3 (R3 peptide with N-terminal tyrosine, radio-iodinated) (peptide)
peptide: Y(125I)LDALLAALRRIQR
notes: Used at 0.5 uM in cross-linking with EDC/NHS; also called tyrosinated peptide analogue of R3; iodinated probe for the intracellular domain of p75NTR
Does B1 bind [7]?
Result: binds

B2: R3 affinity matrix peptide (R3 with six residues added to the N-terminus, coupled to Aminolink agarose) (peptide)
peptide: KAYIAFLDALLAALRRIQR
modifications: also: coupled at pH 7.0 to Aminolink agarose
notes: Immobilised on agarose beads in the assay
Does B2 bind [8]?
Result: binds

B3: R3 peptide (synthetic peptide identical to rat p75NTR 367-379) (peptide)
peptide: LDALLAALRRIQR
notes: also called peptide R3; unlabeled R3
Does B3 bind [9]?
Result: binds
